Experiments:
Settings in all cases: Preemergence, 0 to 100 scale
pitted morningglory = test: Test D pitted morningglory; format: in vivo, Ipomoea lacunosa
Method in brief: (§1)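 Greenhouse pots, sandy loam, single species per pot. Preemergence tests: soil-surface application ≤1 day after planting. Compound formulated in non-phytotoxic solvent with surfactant. Visual rating 14–21 DAT, scale 0–100.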

common pursiane = test: Test D common purslane; format: in vivo, Portulaca oleracea
Method in brief: as §1

Spanishneedles = test: Test D Spanishneedles; format: in vivo, Bidens bipinnata
Method in brief: as §1

common groundsel = test: Test D common groundsel; format: in vivo, Senecio vulgaris
Method in brief: as §1

common ragweed = test: Test D common ragweed; format: in vivo, Ambrosia elatior
Method in brief: as §1

itchgrass = test: Test D itchgrass; format: in vivo, Rottboellia exaltata
Method in brief: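 Scoring used a 0–100 visual injury scale, with 0 meaning no effect and 100 complete control, assessed 14–21 days after application alongside untreated pots. Preemergence treatments went onto sandy loam surfaces of separately potted seeds within a day of sowing.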

sandbur = test: Test D sandbur; format: in vivo, Cenchrus echinatus
Method in brief: as §1

large crabgrass = test: Test D large crabgrass; format: in vivo, Digitaria sanguinalis
Method in brief: as §1

goosegrass = test: Test D goosegrass; format: in vivo, Eleusine indica
Method in brief: as §1

purple nutsedge = test: Test D purple nutsedge; format: in vivo, Cyperus rotundus
Method in brief: as §1

tall mallow = test: Test D tall mallow; format: in vivo, Malva sylvestris
Method in brief: as §1

Johnson grass = test: Test D Johnson grass; format: in vivo, Sorghum halepense
Method in brief: as §1

Alexandergrass = test: Test D Alexandergrass; format: in vivo, Brachiaria plantaginea
Method in brief: as §1

guineagrass = test: Test D guineagrass; format: in vivo, Panicum maximum
Method in brief: as §1

surinam grass = test: Test D surinam grass; format: in vivo, Brachiaria decumbens
Method in brief: as §1

[1] = Rate 16 g/ha, 0 no injury, 100 complete control
[2] = Rate 32 g/ha, 0 no injury, 100 complete control
[3] = Rate 64 g/ha, 0 no injury, 100 complete control
[4] = Rate 125 g/ha, 0 no injury, 100 complete control

## COc1ccccc1-n1c(=O)on(C(=O)N(c2ccc(F)cc2)C(C)C)c1=O [Compound 30]
Pitted morningglory; [1]
  Plant response rating, P. morninglory: 0
Pitted morningglory; [2]
  Plant response rating, P. morninglory: 0
Pitted morningglory; [3]
  Plant response rating, P. morninglory: 0
Pitted morningglory; [4]
  Plant response rating, P. morninglory: 0
Pitted morningglory; Rate 250 g/ha
  Plant response rating, P. morninglory: 0
Pitted morningglory; Rate 500 g/ha
  Plant response rating, P. morninglory: 0
Common pursiane; [1]
  Plant response rating, C. purslane: 0
Common pursiane; [2]
  Plant response rating, C. purslane: 0
Common pursiane; [3]
  Plant response rating, C. purslane: 0
Common pursiane; [4]
  Plant response rating, C. purslane: 0
Common pursiane; Rate 250 g/ha
  Plant response rating, C. purslane: 0
Common pursiane; Rate 500 g/ha
  Plant response rating, C. purslane: 0
Spanishneedles; [1]
  Plant response rating, Spanishneedles: 0
Spanishneedles; [2]
  Plant response rating, Spanishneedles: 0
Spanishneedles; [3]
  Spanishneedles plant response rating: 0
Spanishneedles; [4]
  Spanishneedles plant response rating: 0
Spanishneedles; Rate 500 g/ha
  Plant response rating, Spanishneedles: 0
Common groundsel; [1]
  Plant response rating, Com. groundsel: 0
Common groundsel; [2]
  Plant response rating, Com. groundsel: 0
Common groundsel; [3]
  Plant response rating, Com. groundsel: 0
Common groundsel; [4]
  Plant response rating, Com. groundsel: 0
Common groundsel; Rate 250 g/ha
  Plant response rating, Com. groundsel: 0
Common groundsel; Rate 500 g/ha
  Plant response rating, Com. groundsel: 100
Common ragweed; [1]
  Plant response rating, C. ragweed: 0
Common ragweed; [2]
  Plant response rating, C. ragweed: 0
Common ragweed; [3]
  Plant response rating, C. ragweed: 0
Common ragweed; [4]
  Plant response rating, C. ragweed: 0
Common ragweed; Rate 250 g/ha
  Plant response rating, C. ragweed: 0
Common ragweed; Rate 500 g/ha
  Plant response rating, C. ragweed: 0
itchgrass; [1]
  Plant response rating, Itchgrass: 20
itchgrass; [2]
  Plant response rating, Itchgrass: 20
itchgrass; [3]
  Plant response rating, Itchgrass: 40
itchgrass; [4]
  Plant response rating, Itchgrass: 75
itchgrass; Rate 250 g/ha
  Plant response rating, Itchgrass: 75
sandbur; [1]
  Plant response rating, Sandbur: 0
sandbur; [2]
  Plant response rating, Sandbur: 0
sandbur; [3]
  Sandbur plant response rating: 0
sandbur; [4]
  Sandbur plant response rating: 40
sandbur; Rate 250 g/ha
  Plant response rating, Sandbur: 40
sandbur; Rate 500 g/ha
  Plant response rating, Sandbur: 100
Large crabgrass; [1]
  Plant response rating, Large crabgrass: 40
Large crabgrass; [2]
  Plant response rating, Large crabgrass: 40
Large crabgrass; [3]
  Plant response rating, Large crabgrass: 85
Large crabgrass; [4]
  Plant response rating, Large crabgrass: 98
Large crabgrass; Rate 250 g/ha
  Plant response rating, Large crabgrass: 98
Large crabgrass; Rate 500 g/ha
  Plant response rating, Large crabgrass: 100
goosegrass; [1]
  Plant response rating, Goosegrass: 30
goosegrass; [2]
  Plant response rating, Goosegrass: 40
goosegrass; [3]
  Plant response rating, Goosegrass: 70
goosegrass; [4]
  Plant response rating, Goosegrass: 85
goosegrass; Rate 250 g/ha
  Plant response rating, Goosegrass: 85
goosegrass; Rate 500 g/ha
  Plant response rating, Goosegrass: 98
Purple nutsedge; [1]
  Plant response rating, Purple nutsedge: 0
Purple nutsedge; [2]
  Plant response rating, Purple nutsedge: 0
Purple nutsedge; [3]
  Purple nutsedge plant response rating: 0
Purple nutsedge; [4]
  Purple nutsedge plant response rating: 0
Purple nutsedge; Rate 250 g/ha
  Plant response rating, Purple nutsedge: 0
Purple nutsedge; Rate 500 g/ha
  Plant response rating, Purple nutsedge: 0
Tall mallow; [1]
  Plant response rating, Tall Mallow: 0
Tall mallow; [2]
  Plant response rating, Tall Mallow: 0
Tall mallow; [3]
  Tall Mallow plant response rating: 0
Tall mallow; [4]
  Tall Mallow plant response rating: 0
Tall mallow; Rate 250 g/ha
  Plant response rating, Tall Mallow: 0
Tall mallow; Rate 500 g/ha
  Plant response rating, Tall Mallow: 0
Johnson grass; [1]
  Plant response rating, Johnsongrass: 0
Johnson grass; [2]
  Plant response rating, Johnsongrass: 0
Johnson grass; [3]
  Plant response rating, Johnsongrass: 0
Johnson grass; [4]
  Plant response rating, Johnsongrass: 0
Johnson grass; Rate 250 g/ha
  Plant response rating, Johnsongrass: 0
Johnson grass; Rate 500 g/ha
  Plant response rating, Johnsongrass: 40
Alexandergrass; [1]
  Plant response rating, Alexandergrass: 0
Alexandergrass; [2]
  Plant response rating, Alexandergrass: 0
Alexandergrass; [3]
  Plant response rating, Alexandergrass: 40
Alexandergrass; [4]
  Plant response rating, Alexandergrass: 50
Alexandergrass; Rate 250 g/ha
  Plant response rating, Alexandergrass: 80
Alexandergrass; Rate 500 g/ha
  Plant response rating, Alexandergrass: 90
guineagrass; [1]
  Plant response rating, Guineagrass: 30
guineagrass; [2]
  Plant response rating, Guineagrass: 30
guineagrass; [3]
  Plant response rating, Guineagrass: 40
guineagrass; [4]
  Plant response rating, Guineagrass: 75
guineagrass; Rate 250 g/ha
  Plant response rating, Guineagrass: 98
guineagrass; Rate 500 g/ha
  Plant response rating, Guineagrass: 98
Surinam grass; [2]
  Plant response rating, Surinam grass: 40
Surinam grass; [3]
  Surinam grass plant response rating: 40
Surinam grass; [4]
  Surinam grass plant response rating: 40
Surinam grass; Rate 250 g/ha
  Plant response rating, Surinam grass: 85
Surinam grass; Rate 500 g/ha
  Plant response rating, Surinam grass: 85

## CC(C)N(C(=O)n1oc(=O)n(C2CCCCC2)c1=O)c1ccccc1 [Compound 112]
Pitted morningglory; [1]
  Plant response rating, P. morninglory: 0
Pitted morningglory; [2]
  Plant response rating, P. morninglory: 0
Pitted morningglory; [3]
  Plant response rating, P. morninglory: 0
Pitted morningglory; Rate 250 g/ha
  Plant response rating, P. morninglory: 0
Pitted morningglory; Rate 500 g/ha
  Plant response rating, P. morninglory: 10
Common pursiane; [1]
  Plant response rating, C. purslane: 0
Common pursiane; [2]
  Plant response rating, C. purslane: 0
Common pursiane; [3]
  Plant response rating, C. purslane: 0
Common pursiane; Rate 250 g/ha
  Plant response rating, C. purslane: 0
Common pursiane; Rate 500 g/ha
  Plant response rating, C. purslane: 0
Spanishneedles; [1]
  Plant response rating, Spanishneedles: 0
Spanishneedles; [2]
  Plant response rating, Spanishneedles: 0
Spanishneedles; [3]
  Spanishneedles plant response rating: 0
Spanishneedles; Rate 500 g/ha
  Plant response rating, Spanishneedles: 10
Common groundsel; [1]
  Plant response rating, Com. groundsel: 0
Common groundsel; [2]
  Plant response rating, Com. groundsel: 0
Common groundsel; [3]
  Plant response rating, Com. groundsel: 0
Common groundsel; Rate 250 g/ha
  Plant response rating, Com. groundsel: 0
Common groundsel; Rate 500 g/ha
  Plant response rating, Com. groundsel: 10
Common ragweed; [1]
  Plant response rating, C. ragweed: 0
Common ragweed; [2]
  Plant response rating, C. ragweed: 0
Common ragweed; [3]
  Plant response rating, C. ragweed: 0
Common ragweed; Rate 250 g/ha
  Plant response rating, C. ragweed: 0
Common ragweed; Rate 500 g/ha
  Plant response rating, C. ragweed: 0
itchgrass; [1]
  Plant response rating, Itchgrass: 0
itchgrass; [2]
  Plant response rating, Itchgrass: 0
itchgrass; [3]
  Plant response rating, Itchgrass: 0
itchgrass; Rate 250 g/ha
  Plant response rating, Itchgrass: 0
itchgrass; Rate 500 g/ha
  Plant response rating, Itchgrass: 80
sandbur; [1]
  Plant response rating, Sandbur: 0
sandbur; [2]
  Plant response rating, Sandbur: 0
sandbur; [3]
  Sandbur plant response rating: 0
sandbur; Rate 250 g/ha
  Plant response rating, Sandbur: 0
sandbur; Rate 500 g/ha
  Plant response rating, Sandbur: 100
Large crabgrass; [1]
  Plant response rating, Large crabgrass: 10
Large crabgrass; [2]
  Plant response rating, Large crabgrass: 10
Large crabgrass; [3]
  Plant response rating, Large crabgrass: 10
Large crabgrass; Rate 250 g/ha
  Plant response rating, Large crabgrass: 100
Large crabgrass; Rate 500 g/ha
  Plant response rating, Large crabgrass: 100
goosegrass; [1]
  Plant response rating, Goosegrass: 40
goosegrass; [2]
  Plant response rating, Goosegrass: 40
goosegrass; [3]
  Plant response rating, Goosegrass: 85
goosegrass; Rate 250 g/ha
  Plant response rating, Goosegrass: 100
goosegrass; Rate 500 g/ha
  Plant response rating, Goosegrass: 100
Purple nutsedge; [1]
  Plant response rating, Purple nutsedge: 0
Purple nutsedge; [2]
  Plant response rating, Purple nutsedge: 0
Purple nutsedge; [3]
  Purple nutsedge plant response rating: 0
Purple nutsedge; Rate 250 g/ha
  Plant response rating, Purple nutsedge: 0
Purple nutsedge; Rate 500 g/ha
  Plant response rating, Purple nutsedge: 40
Tall mallow; [1]
  Plant response rating, Tall Mallow: 0
Tall mallow; [2]
  Plant response rating, Tall Mallow: 0
Tall mallow; [3]
  Tall Mallow plant response rating: 0
Tall mallow; Rate 250 g/ha
  Plant response rating, Tall Mallow: 0
Tall mallow; Rate 500 g/ha
  Plant response rating, Tall Mallow: 20
Johnson grass; [1]
  Plant response rating, Johnsongrass: 0
Johnson grass; [2]
  Plant response rating, Johnsongrass: 0
Johnson grass; [3]
  Plant response rating, Johnsongrass: 0
Johnson grass; Rate 250 g/ha
  Plant response rating, Johnsongrass: 0
Johnson grass; Rate 500 g/ha
  Plant response rating, Johnsongrass: 50
Alexandergrass; [1]
  Plant response rating, Alexandergrass: 0
Alexandergrass; [2]
  Plant response rating, Alexandergrass: 0
Alexandergrass; [3]
  Plant response rating, Alexandergrass: 0
Alexandergrass; Rate 250 g/ha
  Plant response rating, Alexandergrass: 80
Alexandergrass; Rate 500 g/ha
  Plant response rating, Alexandergrass: 100
guineagrass; [1]
  Plant response rating, Guineagrass: 0
guineagrass; [2]
  Plant response rating, Guineagrass: 0
guineagrass; [3]
  Plant response rating, Guineagrass: 40
guineagrass; Rate 250 g/ha
  Plant response rating, Guineagrass: 90
guineagrass; Rate 500 g/ha
  Plant response rating, Guineagrass: 100
Surinam grass; [1]
  Plant response rating, Surinam grass: 0
Surinam grass; [2]
  Plant response rating, Surinam grass: 0
Surinam grass; [3]
  Surinam grass plant response rating: 0
Surinam grass; Rate 250 g/ha
  Plant response rating, Surinam grass: 0
Surinam grass; Rate 500 g/ha
  Plant response rating, Surinam grass: 98

Reference: patent publication US6737383B1, “Herbicidal oxadiazolidines” (priority 1999, dated 2004)
